Data as given in patent US7078223B2, “Process for the preparation of pseudomonic acid a antibiotic by microbiological method” (TEVA Gyógyszergyár Zártkörüen Müködö Részvénytársaság, priority 1999, dated 2006).

Experiments:
[1] = biological target: isoleucine-tRNA synthase enzyme (Escherichia coli, UniProt P00956); conditions: affects the peptide synthesis of pathogen bacteria; cited from earlier work
[2] = both for humans and animals; cited from earlier work
[3] = tested on: Bacillus subtilis ATCC 6633; assay: agar diffusion microbial method; type: cell-based; conditions: beef-extract-peptone-glucose agar, pH 6.5, Bacillus subtilis ATCC 6633
Method: The antibacterial activity of the pseudomonic acid antibiotic complex is determined by agar diffusion microbial method. The medium is a beef-extract-peptone-glucose-containing agar, its pH is 6.5 and the test organism is Bacillus subtilis ATCC 6633.

Chain of isoleucine-tRNA synthase enzyme (P00956 whole entry): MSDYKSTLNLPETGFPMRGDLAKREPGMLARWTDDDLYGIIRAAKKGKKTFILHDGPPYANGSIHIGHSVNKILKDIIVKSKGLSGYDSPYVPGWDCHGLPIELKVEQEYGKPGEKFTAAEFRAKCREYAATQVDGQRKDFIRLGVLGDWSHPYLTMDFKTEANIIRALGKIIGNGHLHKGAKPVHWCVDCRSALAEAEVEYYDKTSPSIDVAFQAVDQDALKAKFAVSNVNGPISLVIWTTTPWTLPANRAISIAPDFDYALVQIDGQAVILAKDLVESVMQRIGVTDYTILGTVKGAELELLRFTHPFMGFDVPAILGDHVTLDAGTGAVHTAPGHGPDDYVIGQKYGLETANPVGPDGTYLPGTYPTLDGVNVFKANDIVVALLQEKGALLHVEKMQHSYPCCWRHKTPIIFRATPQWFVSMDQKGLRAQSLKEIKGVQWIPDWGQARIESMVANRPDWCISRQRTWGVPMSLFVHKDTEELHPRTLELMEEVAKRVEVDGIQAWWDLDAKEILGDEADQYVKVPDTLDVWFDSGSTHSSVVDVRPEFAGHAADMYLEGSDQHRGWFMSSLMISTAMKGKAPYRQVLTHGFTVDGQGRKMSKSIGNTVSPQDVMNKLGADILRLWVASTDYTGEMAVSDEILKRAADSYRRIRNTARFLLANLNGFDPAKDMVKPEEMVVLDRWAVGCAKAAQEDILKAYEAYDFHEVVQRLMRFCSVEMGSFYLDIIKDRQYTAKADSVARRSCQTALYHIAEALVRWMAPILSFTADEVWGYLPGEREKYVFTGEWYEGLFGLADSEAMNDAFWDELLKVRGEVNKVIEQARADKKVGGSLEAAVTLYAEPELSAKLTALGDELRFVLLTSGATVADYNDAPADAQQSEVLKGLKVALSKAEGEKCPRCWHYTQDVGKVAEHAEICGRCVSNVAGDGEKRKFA

Structure (SMILES)	inhibition of isoleucine-tRNA synthase enzyme [1]	toxicity [2]	specific activity against the test-microorganism relating to the component A [3]
C/C(=C\C(=O)OCCCCCCCCC(=O)O)CC1OC[C@H](C[C@@H]2O[C@H]2[C@@H](C)[C@H](C)O)[C@@H](O)[C@H]1O (stereo partly drawn) [Pseudomonic acid A, 9-{4[5S(2S,3S-epoxy-5S-hydroxy-4S-methylhexyl)-3R,4R-dihydroxy-tetrahydropyran-2S-yl]-3-methylbut-2(E)-enoyloxy}nonanoic acid]	inhibiting	very low toxicity	–
C/C(=C\C(=O)OCCCCCCCCC(=O)O)CC1OC[C@](O)(C[C@@H]2O[C@H]2[C@@H](C)[C@H](C)O)[C@@H](O)[C@H]1O (stereo partly drawn) [component B, pseudomonic acid B]	–	–	considerably weaker
